Reference: patent publication US6846933B1, “Antimycobacterial compounds and method for making the same” (priority 2000, dated 2005)
In brackets after ≈: the same amount, converted by molar mass. Like-named read-outs stand apart in the source and are kept apart here.

Legend:
[1] = test system: M. tuberculosis strain resistant to isoniazid (ATCC 35822); experiment: microbe, parasite or virus in culture; format: cell-based; conditions: Mycobacterium tuberculosis
[2] = test system: M. tuberculosis strain resistant to rifampin (ATCC 35838); experiment: microbe, parasite or virus in culture; format: cell-based; conditions: Mycobacterium tuberculosis
[3] = ATCC35822, read-out: MIC INH-R (ug/ml)
[4] = ATCC35838, read-out: MIC RMP-R (ug/ml)

SMILES | MIC ([1]; ATCC35822, read-out: MIC of RMP vs INH-R (Comment, Table 9)) [µg/mL] | MIC ([2]; ATCC35838, read-out: MIC of RMP vs RMP-R (Comment, Table 9)) [µg/mL] | MIC [1, 3] [µg/mL] | MIC [2, 4] [µg/mL]
CO[C@H]1/C=C/O[C@@]2(C)Oc3c(C)c(O)c4c(O)c(c(/C=N/N5CCN(C)CC5)c(O)c4c3C2=O)NC(=O)/C(C)=C\C=C\[C@H](C)[C@H](O)[C@@H](C)[C@@H](O)[C@@H](C)[C@H](OC(C)=O)[C@@H]1C [RMP, rifampin, reference compound] | 0.5 | > 8 |  | 
CC(C)=CCCC(C)C/C=N/NC(=O)c1ccncc1 (stereo not shown) [Sample ID 102044] |  |  | 3.13 (≈ 11.4 µM) | < 0.1
COc1ccc(/C=N/NC(=O)c2ccncc2)cc1 [Sample ID 102866] |  |  | 3.25 (≈ 12.7 µM) | < 0.05
O=C(NN=C1CCCC1)c1ccncc1 [Sample ID 111298] |  |  | > 0.75 | 0.05 (≈ 0.246 µM)
CC1C/C(=N/NC(=O)c2ccncc2)CC(C)(C)C1 (stereo not shown) [Sample ID 114353] |  |  | < 6.25 | < 0.1
O=C(N/N=C/c1cc(Cl)ccc1Cl)c1ccncc1 [Sample ID 117150] |  |  | > 3.25 | < 0.05
CCOC(=O)/C(CCc1ccccc1)=N\NC(=O)c1ccncc1 [Sample ID 132358] |  |  | > 3.2 | 0.1 (≈ 0.307 µM)
O=C(N/N=C/C=C(c1ccccc1)c1ccccc1)c1ccncc1 [Sample ID 132532] |  |  | > 3.2 | 0.1 (≈ 0.305 µM)
